In article PMC7391726, “Fatty acid mimetic PBI-4547 restores metabolic homeostasis via GPR84 in mice with non-alcoholic fatty liver disease” (Scientific Reports, 2020):

Experiments:
[1] = biological target: T1, PPARδ (Homo sapiens, UniProt Q03181); experiment: LanthaScreen TR-FRET competitive binding assay, PPARδ LBD; details: Cheng-Prusoff; read-out: Ki inhibition constant, PPARδ LBD
T1 construct: glutathione S-transferase (GST)-tagged human PPAR-LBD; purchased Fisher Scientific
T1 sequence (Q03181 211-439 limits assumed): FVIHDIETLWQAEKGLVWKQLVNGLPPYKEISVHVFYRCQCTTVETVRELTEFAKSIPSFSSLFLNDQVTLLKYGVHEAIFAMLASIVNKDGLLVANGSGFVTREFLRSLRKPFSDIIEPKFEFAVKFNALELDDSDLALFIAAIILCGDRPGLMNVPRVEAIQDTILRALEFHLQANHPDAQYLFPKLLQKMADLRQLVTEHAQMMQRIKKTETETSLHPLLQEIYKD
Text: The peroxisome proliferator-activated receptors (PPARs), PPARα, PPARδ, and PPARγ are ligand-dependent transcription factors regulated by FAs, including MCFAs, which control expression of several key metabolism-associated genes. We thus characterized the binding and transcriptional activity of PBI-4547 to these receptors. A LanthaScreen TR-FRET competitive binding assay was used to determine the binding affinity of PBI-4547 in comparison to the full control agonists GW7647 (PPARα), GW0742 (PPARδ), and rosiglitazone (PPARγ).
The LanthaScreen time-resolved fluorescence resonance energy transfer (TR-FRET) PPARα, PPARδ and PPARγ competitive binding assay (Fisher Scientific) was performed according to the manufacturer’s protocol. […] The FRET signal was measured using an Infinite M1000 microplate reader by excitation at 332 nm and emission at 520 nm for fluorescein and 490 nm for terbium. Competitive ligand binding to PPAR is detected by a test compound’s ability to displace the Fluormone pan-PPAR Green from the LBD, which results in a decrease of the 520 nm/490 nm TR-FRET ratio. The inhibition constant (Ki) of the competitor ligand was calculated by applying the Cheng-Prusoff equation.

[2] = biological target: T2, PPARα (Homo sapiens, UniProt Q07869); experiment: Cell-based GAL4 transactivation assay in HEK293 cells, PPARα LBD; details: HEK293, 24 h; read-out: EC50, PPARα transcriptional activity
T2 construct: human PPARα (S167–Y468); expressed in transfected cells; host or cells: HEK293
T2 sequence (Q07869 167-468): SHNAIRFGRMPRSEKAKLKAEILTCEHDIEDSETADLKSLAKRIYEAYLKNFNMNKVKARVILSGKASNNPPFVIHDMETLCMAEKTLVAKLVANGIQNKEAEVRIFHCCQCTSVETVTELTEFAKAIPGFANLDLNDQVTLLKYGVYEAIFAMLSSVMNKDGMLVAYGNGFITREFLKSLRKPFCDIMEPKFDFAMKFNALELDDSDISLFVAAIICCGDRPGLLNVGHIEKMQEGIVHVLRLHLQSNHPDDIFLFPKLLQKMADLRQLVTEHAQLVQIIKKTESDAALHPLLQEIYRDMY
Text: To determine the transcriptional activity of PBI-4547, a cell-based GAL4 transactivation assay in HEK293 cells transfected with either PPARα, PPARδ, or PPARγ LBD was used. […] However, PBI-4547 only partially activated PPARγ transcriptional activity, with a relative maximal efficacy of 38% of the control agonist rosiglitazone.
Generation of the Gαi2, Gαq, and GPR40/β-arrestin-2 BRET biosensors have been described previously. A plasmid encoding the human GPR120-L (long isoform) cDNA was obtained from R&D Systems. GPR120-S (short isoform) was generated by replacing the BglII-BsgI fragment from GPR120-L by a gBlock gene fragment (Integrated DNA Technologies, Coralville, IA) lacking the DNA sequence corresponding to the extra 16 amino acids found in the third intracellular loop of the long form. The GPR120-GFP10 construct was generated by inserting PCR-amplified GPR120-S (without its stop codon) in place of GPR40 in the GPR40-GFP10 plasmid. […]
HEK293 cells were co-transfected with pGL4.35[luc2P/9XGAL4UAS/Hygro] and GAL4-PPAR-Rluc plasmids, and after 24 h of incubation were treated with compounds for 24 h. Luciferase activity was determined with the Dual Glo luciferase assay (Promega). Firefly luminescence was normalized to the constitutively expressed Renilla luminescence, and results expressed as fold induction of vehicle control.

Ki [1]: 3.16 µM
EC50 [2]: 42 µM
SMILES: CCCCCc1cc(CCCCC)cc(CC(=O)[O-])c1.[Na+] [PBI-4547, 2-[3,5-dipentylphenyl]acetate sodium salt]
